From patent US20240398811A1, “PRC2 INHIBITORS FOR USE IN TREATING BLOOD DISORDERS” (ORIC Pharmaceuticals, Inc., priority 2021, published 2024)

Target: purified human, His-tagged PRC2 complex (Homo sapiens (Human), UniProt O75530)
Assay: Hot Spot HMT assay, inhibition of PRC2 enzymatic activity
Assay type: biochemical
Details: 10 nM PRC2 complex, 1 μM 3H-SAM, core histone H3, 10-point dose-response
Summary of the method: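 Methyl transfer from 1 μM tritiated SAM onto 0.05 mg/ml core histone H3, catalysed by 10 nM His/Flag-tagged human PRC2 holoenzyme, was run 1 hr at 30° C after a 20 min compound preincubation. Serial dilutions began at 1.0 μM; product captured on filters and counted.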

Chain of purified human, His-tagged PRC2 complex (O75530 whole entry): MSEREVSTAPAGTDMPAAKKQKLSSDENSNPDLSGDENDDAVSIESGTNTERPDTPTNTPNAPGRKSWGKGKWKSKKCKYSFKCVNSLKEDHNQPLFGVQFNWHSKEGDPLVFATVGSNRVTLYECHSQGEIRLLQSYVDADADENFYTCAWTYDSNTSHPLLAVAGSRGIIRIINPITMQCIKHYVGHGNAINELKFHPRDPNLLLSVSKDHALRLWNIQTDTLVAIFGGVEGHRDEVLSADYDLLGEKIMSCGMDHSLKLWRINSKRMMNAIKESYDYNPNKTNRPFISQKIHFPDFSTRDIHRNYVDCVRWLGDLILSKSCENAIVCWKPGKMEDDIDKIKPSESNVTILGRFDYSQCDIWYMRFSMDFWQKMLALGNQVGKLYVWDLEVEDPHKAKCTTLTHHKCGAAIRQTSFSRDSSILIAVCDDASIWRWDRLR
Chain of purified human, His-tagged PRC2 complex (Q15910 whole entry partner): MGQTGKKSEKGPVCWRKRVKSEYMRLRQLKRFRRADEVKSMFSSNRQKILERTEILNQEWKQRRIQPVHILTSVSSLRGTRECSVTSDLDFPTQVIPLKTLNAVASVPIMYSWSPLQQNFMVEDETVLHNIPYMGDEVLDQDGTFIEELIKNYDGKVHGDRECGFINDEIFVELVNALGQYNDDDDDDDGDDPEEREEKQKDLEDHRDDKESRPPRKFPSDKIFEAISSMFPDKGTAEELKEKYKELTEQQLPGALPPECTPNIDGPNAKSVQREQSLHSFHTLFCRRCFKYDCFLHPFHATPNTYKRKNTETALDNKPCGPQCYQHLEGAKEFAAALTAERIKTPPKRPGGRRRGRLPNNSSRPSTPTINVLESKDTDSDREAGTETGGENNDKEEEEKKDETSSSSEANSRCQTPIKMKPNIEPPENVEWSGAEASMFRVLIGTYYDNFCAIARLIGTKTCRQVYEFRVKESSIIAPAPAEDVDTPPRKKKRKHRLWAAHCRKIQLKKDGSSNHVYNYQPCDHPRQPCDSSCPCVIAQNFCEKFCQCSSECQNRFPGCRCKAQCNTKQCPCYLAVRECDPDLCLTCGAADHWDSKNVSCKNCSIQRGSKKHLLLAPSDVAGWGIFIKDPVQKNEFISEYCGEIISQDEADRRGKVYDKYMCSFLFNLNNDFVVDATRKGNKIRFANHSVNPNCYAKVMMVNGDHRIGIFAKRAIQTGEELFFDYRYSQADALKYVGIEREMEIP
Chain of purified human, His-tagged PRC2 complex (Q15022 whole entry partner): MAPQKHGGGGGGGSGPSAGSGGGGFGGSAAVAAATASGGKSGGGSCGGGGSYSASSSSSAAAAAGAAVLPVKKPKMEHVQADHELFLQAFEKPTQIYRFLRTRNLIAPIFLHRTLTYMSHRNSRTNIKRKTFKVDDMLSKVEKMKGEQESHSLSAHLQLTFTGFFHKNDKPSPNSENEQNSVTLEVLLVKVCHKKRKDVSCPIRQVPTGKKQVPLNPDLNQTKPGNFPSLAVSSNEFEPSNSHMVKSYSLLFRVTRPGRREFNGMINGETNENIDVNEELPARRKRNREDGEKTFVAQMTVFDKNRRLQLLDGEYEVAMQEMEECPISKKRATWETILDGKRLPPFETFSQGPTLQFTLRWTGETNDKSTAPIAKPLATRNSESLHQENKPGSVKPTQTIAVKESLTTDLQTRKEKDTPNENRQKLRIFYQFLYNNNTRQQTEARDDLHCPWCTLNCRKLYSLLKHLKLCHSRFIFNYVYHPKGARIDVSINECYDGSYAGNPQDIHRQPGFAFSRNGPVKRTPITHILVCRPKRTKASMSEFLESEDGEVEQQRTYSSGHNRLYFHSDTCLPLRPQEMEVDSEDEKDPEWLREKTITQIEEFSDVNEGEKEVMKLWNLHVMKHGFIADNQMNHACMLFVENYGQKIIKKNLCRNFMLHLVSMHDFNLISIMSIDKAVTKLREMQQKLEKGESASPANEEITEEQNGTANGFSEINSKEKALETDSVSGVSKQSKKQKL
Chain of purified human, His-tagged PRC2 complex (Q6ZN18 whole entry partner): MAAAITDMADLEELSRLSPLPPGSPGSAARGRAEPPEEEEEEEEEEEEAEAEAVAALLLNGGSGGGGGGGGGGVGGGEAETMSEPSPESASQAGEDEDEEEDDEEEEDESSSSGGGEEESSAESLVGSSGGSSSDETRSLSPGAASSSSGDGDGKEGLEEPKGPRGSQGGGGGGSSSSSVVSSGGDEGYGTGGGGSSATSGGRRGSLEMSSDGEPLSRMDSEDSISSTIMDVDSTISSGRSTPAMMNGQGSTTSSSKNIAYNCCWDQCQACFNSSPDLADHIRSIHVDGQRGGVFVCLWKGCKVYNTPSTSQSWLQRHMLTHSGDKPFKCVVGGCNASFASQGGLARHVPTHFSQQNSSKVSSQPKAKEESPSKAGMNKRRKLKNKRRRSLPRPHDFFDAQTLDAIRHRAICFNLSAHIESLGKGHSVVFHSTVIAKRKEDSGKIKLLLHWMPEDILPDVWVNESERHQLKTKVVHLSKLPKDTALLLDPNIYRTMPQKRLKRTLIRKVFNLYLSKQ
Chain of purified human, His-tagged PRC2 complex (Q09028 whole entry partner): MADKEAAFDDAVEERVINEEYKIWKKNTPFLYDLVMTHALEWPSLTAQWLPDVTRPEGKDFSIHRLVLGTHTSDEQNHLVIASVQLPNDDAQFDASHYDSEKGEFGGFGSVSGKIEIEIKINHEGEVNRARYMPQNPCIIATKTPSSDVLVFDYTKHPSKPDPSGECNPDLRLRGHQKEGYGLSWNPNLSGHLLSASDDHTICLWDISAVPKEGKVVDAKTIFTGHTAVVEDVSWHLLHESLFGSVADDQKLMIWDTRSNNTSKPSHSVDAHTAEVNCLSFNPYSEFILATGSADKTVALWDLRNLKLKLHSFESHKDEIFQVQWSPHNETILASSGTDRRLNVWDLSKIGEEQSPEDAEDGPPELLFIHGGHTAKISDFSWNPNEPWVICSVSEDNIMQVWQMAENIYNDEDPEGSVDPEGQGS

Row | SMILES | IC50
1 | CN1CCCC1c1ccc(-c2cnc(NCc3c(F)ccc4c3CCO4)n3cc(C#N)nc23)cc1 (stereo not shown) [Example 160, 5-(((5-fluoro-2,3-dihydrobenzofuran-4-yl)methyl)amino)-8-(4-(1-methylpyrrolidin-2-yl)phenyl)imidazo[1,2-c]pyrimidine-2-carbonitrile] | < 100 nM
2 | COCCOc1ccc(-c2cnc(NCc3c(F)ccc4c3CCO4)n3cc(C#N)nc23)cc1 [Example 161, 5-(((5-fluoro-2,3-dihydrobenzofuran-4-yl)methyl)amino)-8-(4-(2-methoxyethoxy)phenyl)imidazo[1,2-c]pyrimidine-2-carbonitrile] | < 100 nM
3 | N#Cc1cn2c(NCc3c(F)ccc4c3CCO4)ncc(-c3ccc(C4CCCO4)cc3)c2n1 (stereo not shown) [Example 162, 5-(((5-fluoro-2,3-dihydrobenzofuran-4-yl)methyl)amino)-8-(4-(tetrahydrofuran-2-yl)phenyl)imidazo[1,2-c]pyrimidine-2-carbonitrile] | < 100 nM
4 | CN(C)CCc1ccc(-c2cnc(NCc3c(F)ccc4c3CCO4)n3cc(C#N)nc23)cc1 [Example 163, 8-(4-(2-(dimethylamino)ethyl)phenyl)-5-(((5-fluoro-2,3-dihydrobenzofuran-4-yl)methyl)amino)imidazo[1,2-c]pyrimidine-2-carbonitrile] | < 100 nM
5 | CCOP(=O)(OCC)c1ccc(-c2cnc(NCc3c(F)ccc4c3CCO4)n3cc(C#N)nc23)cc1 [Example 164, diethyl (4-(2-cyano-5-(((5-fluoro-2,3-dihydrobenzofuran-4-yl)methyl)amino)imidazo[1,2-c]pyrimidin-8-yl)phenyl)phosphonate] | < 100 nM
6 | [2H]C([2H])(Nc1ncc(-c2ccc(CN(C)C)cc2)c2nc(C#N)cn12)c1c(F)ccc2c1CCO2 [Example 165, 8-(4-((dimethylamino)methyl)phenyl)-5-(((5-fluoro-2,3-dihydrobenzofuran-4-yl)methyl-d2)amino)imidazo[1,2-c]pyrimidine-2-carbonitrile] | < 100 nM
7 | COC(=O)c1ccc(-c2cnc(NCc3c(F)ccc4c3CCO4)n3cc(C#N)nc23)cn1 [Example 166, methyl 5-(2-cyano-5-(((5-fluoro-2,3-dihydrobenzofuran-4-yl)methyl)amino)imidazo[1,2-c]pyrimidin-8-yl)picolinate] | < 100 nM
8 | COC(=O)c1ccc(-c2cnc(NCc3c(F)ccc4c3CCO4)n3cc(C#N)nc23)cc1 [Example 167, methyl 4-(2-cyano-5-(((5-fluoro-2,3-dihydrobenzofuran-4-yl)methyl)amino)imidazo[1,2-c]pyrimidin-8-yl)benzoate] | 100 to 500 nM
9 | CN1CCc2cc(-c3cnc(NCc4c(F)ccc5c4CCO5)n4cc(C#N)nc34)ccc2C1=O [Example 168, 5-(((5-fluoro-2,3-dihydrobenzofuran-4-yl)methyl)amino)-8-(2-methyl-1-oxo-1,2,3,4-tetrahydroisoquinolin-6-yl)imidazo[1,2-c]pyrimidine-2-carbonitrile] | < 100 nM
10 | COC(=O)c1cc(-c2cnc(NCc3c(F)ccc4c3CCO4)n3cc(C#N)nc23)n(C)n1 [Example 169, methyl 5-(2-cyano-5-(((5-fluoro-2,3-dihydrobenzofuran-4-yl)methyl)amino)imidazo[1,2-c]pyrimidin-8-yl)-1-methyl-1H-pyrazole-3-carboxylate] | < 100 nM
11 | CN(C)C(=O)c1cc(-c2cnc(NCc3c(F)ccc4c3CCO4)n3cc(C#N)nc23)n(C)n1 [Example 170, 5-(2-cyano-5-(((5-fluoro-2,3-dihydrobenzofuran-4-yl)methyl)amino)imidazo[1,2-c]pyrimidin-8-yl)-N,N,1-trimethyl-1H-pyrazole-3-carboxamide] | < 100 nM
12 | CN(C)C1(c2ccc(-c3cnc(NCc4c(F)ccc5c4CCO5)n4cc(C#N)nc34)cc2)CC1 [Example 171, 8-(4-(1-(dimethylamino)cyclopropyl)phenyl)-5-(((5-fluoro-2,3-dihydrobenzofuran-4-yl)methyl)amino)imidazo[1,2-c]pyrimidine-2-carbonitrile] | < 100 nM
13 | N#Cc1cn2c(NCc3c(F)ccc4c3CCO4)ncc(-c3ccc4c(c3)CCNC4=O)c2n1 [Example 172, 5-(((5-fluoro-2,3-dihydrobenzofuran-4-yl)methyl)amino)-8-(1-oxo-1,2,3,4-tetrahydroisoquinolin-6-yl)imidazo[1,2-c]pyrimidine-2-carbonitrile] | < 100 nM
14 | [2H]C([2H])(c1ccc(-c2cnc(NCc3c(F)ccc4c3CCO4)n3cc(C#N)nc23)c(C)c1)N(C)C [Example 173, 8-(4-((dimethylamino)methyl-d2)-2-methylphenyl)-5-(((5-fluoro-2,3-dihydrobenzofuran-4-yl)methyl)amino)imidazo[1,2-c]pyrimidine-2-carbonitrile] | < 100 nM
15 | N#Cc1cn2c(NCc3c(F)ccc4c3CCO4)ncc(-c3cccc(C(=O)O)c3)c2n1 [Example 174, 3-(2-cyano-5-(((5-fluoro-2,3-dihydrobenzofuran-4-yl)methyl)amino)imidazo[1,2-c]pyrimidin-8-yl)benzoic acid] | < 100 nM
16 | Cc1ccc(-c2cnc(NCc3c(F)ccc4c3CCO4)n3cc(C#N)nc23)cc1 [Example 175, 5-(((5-fluoro-2,3-dihydrobenzofuran-4-yl)methyl)amino)-8-(p-tolyl)imidazo[1,2-c]pyrimidine-2-carbonitrile] | 100 to 500 nM
17 | Cc1c(C#N)cccc1-c1cnc(NCc2c(F)ccc3c2CCO3)n2cc(C#N)nc12 [Example 176, 8-(3-cyano-2-methylphenyl)-5-(((5-fluoro-2,3-dihydrobenzofuran-4-yl)methyl)amino)imidazo[1,2-c]pyrimidine-2-carbonitrile] | < 100 nM
18 | Cc1ccc(C#N)cc1-c1cnc(NCc2c(F)ccc3c2CCO3)n2cc(C#N)nc12 [Example 177, 8-(5-cyano-2-methylphenyl)-5-(((5-fluoro-2,3-dihydrobenzofuran-4-yl)methyl)amino)imidazo[1,2-c]pyrimidine-2-carbonitrile] | 100 to 500 nM
19 | CC(O)Cn1cc(-c2cnc(NCc3c(F)ccc4c3CCO4)n3cc(C#N)nc23)cn1 (stereo not shown) [Example 179, 5-(((5-fluoro-2,3-dihydrobenzofuran-4-yl)methyl)amino)-8-(1-(2-hydroxypropyl)-1H-pyrazol-4-yl)imidazo[1,2-c]pyrimidine-2-carbonitrile] | < 100 nM
20 | CN(C)C(=O)c1ccc(-c2cnc(NCc3c(F)ccc4c3CCO4)n3cc(C#N)nc23)cc1 [Example 180, 4-(2-cyano-5-(((5-fluoro-2,3-dihydrobenzofuran-4-yl)methyl)amino)imidazo[1,2-c]pyrimidin-8-yl)-N,N-dimethylbenzamide] | < 100 nM
21 | N#Cc1cn2c(NCc3c(F)ccc4c3CCO4)ncc(-c3ccc(C(=O)N4CCOCC4)cc3)c2n1 [Example 181, 5-(((5-fluoro-2,3-dihydrobenzofuran-4-yl)methyl)amino)-8-(4-(morpholine-4-carbonyl)phenyl)imidazo[1,2-c]pyrimidine-2-carbonitrile] | < 100 nM
22 | N#Cc1cn2c(NCc3c(F)ccc4c3CCO4)ncc(-c3cnn(CCO)c3)c2n1 [Example 182, 5-(((5-fluoro-2,3-dihydrobenzofuran-4-yl)methyl)amino)-8-(1-(2-hydroxyethyl)-1H-pyrazol-4-yl)imidazo[1,2-c]pyrimidine-2-carbonitrile] | 100 to 500 nM
